Legend:
Format in all cases: in vivo
[1] = tested on: Puccinia recondita f. sp. tritici; test: Test E: wheat leaf rust, spray after inoculation (curative) on wheat seedlings; details: 200 ppm test suspension, wheat seedlings sprayed after inoculation, visual rating, relative to controls
Method: General protocol for preparing test suspensions for Tests A-D: the test compounds were first dissolved in acetone in an amount equal to 3% of the final volume and then suspended at the desired concentration (in ppm) in acetone and purified water (50/50 mix by volume) containing 250 ppm of the surfactant Trem® 014 (polyhydric alcohol esters). The resulting test suspensions were then used in Tests A-G. Each test was conducted in triplicate, and the results were averaged. Spraying a 200 ppm test suspension to the point of run-off on the test plants was the equivalent of a rate of 800 g/ha. Unless otherwise indicated, the rating values indicate a 200 ppm test suspension was used. (An asterisk “*” next to the rating value indicates a 40 ppm test suspension was used.) Wheat seedlings were inoculated with a spore suspension of Puccinia recondita f. sp. tritici (the causal agent of wheat leaf rust) and incubated in a saturated atmosphere at 20° C. for 24 h, and then moved to a growth chamber at 20° C. for 2 days. After 2 days, the test suspension was sprayed to the point of run-off on the wheat seedlings, and then the seedlings were moved back to the growth chamber at 20° C. for 4 days. Upon removal, visual disease ratings were made. […]

[2] = tested on: Puccinia recondita f. sp. tritici; test: Test F: wheat leaf rust, preventive spray on wheat seedlings; details: 200 ppm test suspension, inoculated following day, visual rating, relative to controls
Method: General protocol for preparing test suspensions for Tests A-D: the test compounds were first dissolved in acetone in an amount equal to 3% of the final volume and then suspended at the desired concentration (in ppm) in acetone and purified water (50/50 mix by volume) containing 250 ppm of the surfactant Trem® 014 (polyhydric alcohol esters). The resulting test suspensions were then used in Tests A-G. Each test was conducted in triplicate, and the results were averaged. Spraying a 200 ppm test suspension to the point of run-off on the test plants was the equivalent of a rate of 800 g/ha. Unless otherwise indicated, the rating values indicate a 200 ppm test suspension was used. (An asterisk “*” next to the rating value indicates a 40 ppm test suspension was used.) The test suspension was sprayed to the point of run-off on wheat seedlings. The following day the seedlings were inoculated with a spore suspension of Puccinia recondita f. sp. tritici (the causal agent of wheat leaf rust) and incubated in a saturated atmosphere at 20° C. for 24 h, and then moved to a growth chamber at 20° C. for 6 days, after which time visual disease ratings were made. Results for Tests A-G are given in Table A. In the Table, a rating of 100 indicates 100% disease control and a rating of 0 indicates no disease control (relative to the controls). A hyphen (-) indicates no test results.

[3] = tested on: Blumeria graminis f. sp. tritici; test: Test G: wheat powdery mildew, preventive spray on wheat seedlings; details: 200 ppm test suspension, inoculated following day with spore dust, visual rating, relative to controls
Method: General protocol for preparing test suspensions for Tests A-D: the test compounds were first dissolved in acetone in an amount equal to 3% of the final volume and then suspended at the desired concentration (in ppm) in acetone and purified water (50/50 mix by volume) containing 250 ppm of the surfactant Trem® 014 (polyhydric alcohol esters). The resulting test suspensions were then used in Tests A-G. Each test was conducted in triplicate, and the results were averaged. Spraying a 200 ppm test suspension to the point of run-off on the test plants was the equivalent of a rate of 800 g/ha. Unless otherwise indicated, the rating values indicate a 200 ppm test suspension was used. (An asterisk “*” next to the rating value indicates a 40 ppm test suspension was used.) The test suspension was sprayed to the point of run-off on wheat seedlings. The following day the seedlings were inoculated with a spore dust of Blumeria graminis f. sp. tritici (also known as Erysiphe graminis f. sp. tritici, the causal agent of wheat powdery mildew) and incubated in a growth chamber at 20° C. for 8 days, after which time visual disease ratings were made. Results for Tests A-G are given in Table A. In the Table, a rating of 100 indicates 100% disease control and a rating of 0 indicates no disease control (relative to the controls). A hyphen (-) indicates no test results.

Septoria tritici = test: Test D: wheat leaf blotch, preventive spray on wheat seedlings; details: 200 ppm test suspension, inoculated following day, visual rating, relative to controls
Method: General protocol for preparing test suspensions for Tests A-D: the test compounds were first dissolved in acetone in an amount equal to 3% of the final volume and then suspended at the desired concentration (in ppm) in acetone and purified water (50/50 mix by volume) containing 250 ppm of the surfactant Trem® 014 (polyhydric alcohol esters). The resulting test suspensions were then used in Tests A-G. Each test was conducted in triplicate, and the results were averaged. Spraying a 200 ppm test suspension to the point of run-off on the test plants was the equivalent of a rate of 800 g/ha. Unless otherwise indicated, the rating values indicate a 200 ppm test suspension was used. (An asterisk “*” next to the rating value indicates a 40 ppm test suspension was used.) The test suspension was sprayed to the point of run-off on wheat seedlings. The following day the seedlings were inoculated with a spore suspension of Septoria tritici (the causal agent of wheat leaf blotch) and incubated in saturated atmosphere at 24° C. for 48 h. and then the seedlings were moved to a growth chamber at 20° C. for 19 additional days, after which time visual disease ratings were made. Results for Tests A-G are given in Table A. In the Table, a rating of 100 indicates 100% disease control and a rating of 0 indicates no disease control (relative to the controls). A hyphen (-) indicates no test results.

Alternaria solani = test: Test B: tomato early blight, preventive spray on tomato seedlings; details: 200 ppm test suspension, inoculated following day, visual rating, relative to controls
Method: General protocol for preparing test suspensions for Tests A-D: the test compounds were first dissolved in acetone in an amount equal to 3% of the final volume and then suspended at the desired concentration (in ppm) in acetone and purified water (50/50 mix by volume) containing 250 ppm of the surfactant Trem® 014 (polyhydric alcohol esters). The resulting test suspensions were then used in Tests A-G. Each test was conducted in triplicate, and the results were averaged. Spraying a 200 ppm test suspension to the point of run-off on the test plants was the equivalent of a rate of 800 g/ha. Unless otherwise indicated, the rating values indicate a 200 ppm test suspension was used. (An asterisk “*” next to the rating value indicates a 40 ppm test suspension was used.) The test suspension was sprayed to the point of run-off on tomato seedlings. The following day the seedlings were inoculated with a spore suspension of Alternaria solani (the causal agent of tomato early blight) and incubated in a saturated atmosphere at 27° C. for 48 h, and then moved to a growth chamber at 20° C. for 5 days, after which time visual disease ratings were made. Results for Tests A-G are given in Table A. In the Table, a rating of 100 indicates 100% disease control and a rating of 0 indicates no disease control (relative to the controls). A hyphen (-) indicates no test results.

Septoria nodorum = test: Test C: Septoria glume blotch, preventive spray on wheat seedlings; details: 200 ppm test suspension, inoculated following day, visual rating, relative to controls
Method: General protocol for preparing test suspensions for Tests A-D: the test compounds were first dissolved in acetone in an amount equal to 3% of the final volume and then suspended at the desired concentration (in ppm) in acetone and purified water (50/50 mix by volume) containing 250 ppm of the surfactant Trem® 014 (polyhydric alcohol esters). The resulting test suspensions were then used in Tests A-G. Each test was conducted in triplicate, and the results were averaged. Spraying a 200 ppm test suspension to the point of run-off on the test plants was the equivalent of a rate of 800 g/ha. Unless otherwise indicated, the rating values indicate a 200 ppm test suspension was used. (An asterisk “*” next to the rating value indicates a 40 ppm test suspension was used.) The test suspension was sprayed to the point of run-off on wheat seedlings. The following day the seedlings were inoculated with a spore suspension of Septoria nodorum (the causal agent of Septoria glume blotch) and incubated in a saturated atmosphere at 24° C. for 48 h, and then moved to a growth chamber at 20° C. for 9 days, after which time visual disease ratings were made. Results for Tests A-G are given in Table A. In the Table, a rating of 100 indicates 100% disease control and a rating of 0 indicates no disease control (relative to the controls). A hyphen (-) indicates no test results.

Botrytis cinerea = test: Test A: tomato Botrytis, preventive spray on tomato seedlings; details: 200 ppm test suspension, inoculated following day, visual rating, relative to controls
Method: General protocol for preparing test suspensions for Tests A-D: the test compounds were first dissolved in acetone in an amount equal to 3% of the final volume and then suspended at the desired concentration (in ppm) in acetone and purified water (50/50 mix by volume) containing 250 ppm of the surfactant Trem® 014 (polyhydric alcohol esters). The resulting test suspensions were then used in Tests A-G. Each test was conducted in triplicate, and the results were averaged. Spraying a 200 ppm test suspension to the point of run-off on the test plants was the equivalent of a rate of 800 g/ha. Unless otherwise indicated, the rating values indicate a 200 ppm test suspension was used. (An asterisk “*” next to the rating value indicates a 40 ppm test suspension was used.) The test suspension was sprayed to the point of run-off on tomato seedlings. The following day the seedlings were inoculated with a spore suspension of Botrytis cinerea (the causal agent of tomato Botrytis) and incubated in saturated atmosphere at 20° C. for 48 h, and then moved to a growth chamber at 24° C. for 3 additional days, after which time visual disease ratings were made. Results for Tests A-G are given in Table A. In the Table, a rating of 100 indicates 100% disease control and a rating of 0 indicates no disease control (relative to the controls). A hyphen (-) indicates no test results.

CNC(c1ccc(F)cc1F)c1c(-c2c(F)cccc2F)c(C)nn1C (stereo not drawn) [Compound 2, α-(2,4-difluorophenyl)-4-(2,6-difluorophenyl)-N,1,3-trimethyl-1H-pyrazol-5-methanamine]
Test E disease control rating (100 = 100% disease control, 0 = no disease control) [1]: 0
Test F disease control rating (100 = 100% disease control, 0 = no disease control) [2]: 0
Test G disease control rating (100 = 100% disease control, 0 = no disease control) [3]: 82
Test D disease control rating (100 = 100% disease control, 0 = no disease control) (Septoria tritici): 99
Test B disease control rating (100 = 100% disease control, 0 = no disease control) (Alternaria solani): 0
Test C disease control rating (100 = 100% disease control, 0 = no disease control) (Septoria nodorum): 0

Cc1nn(C)c(C(N)c2ccc(F)cc2F)c1-c1c(F)cccc1F (stereo not drawn) [Compound 3, α-(2,4-difluorophenyl)-4-(2,6-difluorophenyl)-1,3-dimethyl-1H-pyrazol-5-methanamine]
Test A disease control rating (100 = 100% disease control, 0 = no disease control) (Botrytis cinerea): 98
Test F disease control rating (100 = 100% disease control, 0 = no disease control) [2]: 99
Test G disease control rating (100 = 100% disease control, 0 = no disease control) [3]: 98
Test D disease control rating (100 = 100% disease control, 0 = no disease control) (Septoria tritici): 100

CSC(c1ccc(F)cc1F)c1c(-c2c(F)cccc2F)c(C)nn1C (centres unmarked) [Compound 4, 4-(2,6-difluorophenyl)-5-[(2,4-difluorophenyl)(methylthio)methyl]-1,3-dimethyl-1H-pyrazole]
Test E disease control rating (100 = 100% disease control, 0 = no disease control) [1]: 9
Test A disease control rating (100 = 100% disease control, 0 = no disease control) (Botrytis cinerea): 31
Test F disease control rating (100 = 100% disease control, 0 = no disease control) [2]: 85
Test G disease control rating (100 = 100% disease control, 0 = no disease control) [3]: 82
Test D disease control rating (100 = 100% disease control, 0 = no disease control) (Septoria tritici): 99
Test B disease control rating (100 = 100% disease control, 0 = no disease control) (Alternaria solani): 0
Test C disease control rating (100 = 100% disease control, 0 = no disease control) (Septoria nodorum): 0

Reference: patent publication US20140235689A1, “FUNGICIDAL PYRAZOLES” (E I DU PONT DE NEMOURS AND COMPANY, priority 2013, published 2014)
